Results taken from patent US20120270875A1, “PYRIMIDINE AMIDE COMPOUNDS” (priority 2011, published 2012).
Like-named read-outs stand apart in the source and are kept apart here.

Experiments:
sLFA-1/ICAM-1 = sLFA-1/ICAM-1 (Homo sapiens, UniProt P05107+P20701, DEL701-769); test: sLFA-1/ICAM-1 ELISA; assay type: binding
Procedure: sLFA-1/ICAM-1 ELISA and Mac-1/ICAM-1 ELISA
Plates were coated with either 50 μl/well of 2.0 ug/ml solution of sLFA-1 or Mac-1 receptor in divalent cation buffer (1 mM MnCl2, 0.14M NaCl, 20 mM HEPES pH 7.2) at 4° C. overnight. Two hundred fifty μl of blocking buffer (1% BSA in divalent cation buffer) was added to each well 1 hour at 37° C. Plates were washed 3 times with wash buffer (TBS/0.05% Tween-20/1 mM MnCl2). The compound to be tested was solubilized in DMSO. A series of 1:3 dilutions were performed to achieve a concentration range of 0.45 nM-3 uM. Fifty μl of binding buffer (0.5% BSA in divalent cation buffer)/1% DMSO and 50 μl of the solutions to be tested were added to the appropriate wells and incubated for 1 hour. Fifty μl of 5dICAM-Fc (27 ng/ml) was added to the appropriate wells and 50 μl binding buffer was added to non-specific binding wells and incubated for 2 hours and washed. One hundred μl of 1:4000 HRP-goat anti-huIgG was added to each well and incubated for 1 hour and washed. One hundred μl of 1:1 TMB solution was added to each well and developed for 20 min at room temperature. Color development was stopped by adding 100 μl H3PO4 to each well. Absorbance was measured at 450 nm.

[1] = tested on: PBMC's from two healthy donors; test: Human Mixed Lymphocyte Reaction (hMLR); assay type: cell-based; settings: 3H-thymidine incorporation, read-out: human MLR (IC50)
Procedure: Human Mixed Lymphocyte Reaction (hMLR)
PBMC's were isolated from two healthy donors by Ficoll gradient. Cells were resuspended with 4 mL assay media and counted with a Coulter Counter. Both cell populations were resuspended to 1×10^7/mL. Stimulator cells were irradiated for 2.5 min (2000 RAD) in cesium irradiator. 5×10^5 cells were added to duplicate wells of the plate. Included were quadruplicate wells receiving responder cells alone and stimulator cells alone. The compound to be tested was solubilized in DMSO. A series of 1:3 dilutions were performed to achieve a concentration range of 0.45 nM-3 uM. One hundred μl of the solutions to be tested were added to the cell plate (100 μl of 2% DMSO/media added to control wells). Plates were then incubated for 2.5 days at 37° C. with 5% CO2. Plates were pulsed with 50 μl/well 3H-thymidine at 0.5 uCi/well then incubated for 6 hours at 37° C. with 5% CO2. Cells were harvested using Cell Harvester (TomTec) and counted on TopCount (Perkin Elmer).

[2] = sLFA-1 coated plates, 5dICAM-Fc binding, ELISA, read-out: LFA-1/ICAM (IC50)

Sequence of sLFA-1/ICAM-1 (P20701 26-1090 limits assumed, stated change not applied): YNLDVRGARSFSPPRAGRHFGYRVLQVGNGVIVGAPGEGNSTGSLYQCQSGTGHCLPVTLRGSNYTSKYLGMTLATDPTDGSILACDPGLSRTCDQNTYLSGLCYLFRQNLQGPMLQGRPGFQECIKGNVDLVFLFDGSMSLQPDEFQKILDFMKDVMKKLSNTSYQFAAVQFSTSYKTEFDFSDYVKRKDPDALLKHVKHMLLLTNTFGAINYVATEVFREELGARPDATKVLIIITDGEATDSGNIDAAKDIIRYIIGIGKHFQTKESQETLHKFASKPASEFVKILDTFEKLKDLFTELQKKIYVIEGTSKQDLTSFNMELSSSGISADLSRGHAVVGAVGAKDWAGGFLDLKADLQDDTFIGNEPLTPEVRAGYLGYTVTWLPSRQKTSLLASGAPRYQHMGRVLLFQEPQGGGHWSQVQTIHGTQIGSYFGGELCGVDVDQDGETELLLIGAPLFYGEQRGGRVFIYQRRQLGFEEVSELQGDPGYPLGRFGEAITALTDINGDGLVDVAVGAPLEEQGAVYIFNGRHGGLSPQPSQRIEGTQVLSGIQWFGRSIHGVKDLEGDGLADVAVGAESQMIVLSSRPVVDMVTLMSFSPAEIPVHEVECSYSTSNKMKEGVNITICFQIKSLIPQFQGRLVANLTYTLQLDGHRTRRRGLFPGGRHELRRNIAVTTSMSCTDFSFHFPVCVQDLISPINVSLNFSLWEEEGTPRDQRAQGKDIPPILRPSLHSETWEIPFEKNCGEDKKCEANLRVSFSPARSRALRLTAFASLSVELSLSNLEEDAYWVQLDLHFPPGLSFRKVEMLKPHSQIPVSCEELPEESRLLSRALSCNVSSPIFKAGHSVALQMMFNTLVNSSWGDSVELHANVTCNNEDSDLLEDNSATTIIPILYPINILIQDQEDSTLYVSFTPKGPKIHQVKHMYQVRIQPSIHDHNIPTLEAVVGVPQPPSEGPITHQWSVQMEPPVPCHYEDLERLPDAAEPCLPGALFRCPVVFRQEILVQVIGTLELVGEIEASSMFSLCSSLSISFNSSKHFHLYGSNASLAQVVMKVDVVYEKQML
Sequence of sLFA-1/ICAM-1 (P05107 23-700 limits assumed, stated change not applied): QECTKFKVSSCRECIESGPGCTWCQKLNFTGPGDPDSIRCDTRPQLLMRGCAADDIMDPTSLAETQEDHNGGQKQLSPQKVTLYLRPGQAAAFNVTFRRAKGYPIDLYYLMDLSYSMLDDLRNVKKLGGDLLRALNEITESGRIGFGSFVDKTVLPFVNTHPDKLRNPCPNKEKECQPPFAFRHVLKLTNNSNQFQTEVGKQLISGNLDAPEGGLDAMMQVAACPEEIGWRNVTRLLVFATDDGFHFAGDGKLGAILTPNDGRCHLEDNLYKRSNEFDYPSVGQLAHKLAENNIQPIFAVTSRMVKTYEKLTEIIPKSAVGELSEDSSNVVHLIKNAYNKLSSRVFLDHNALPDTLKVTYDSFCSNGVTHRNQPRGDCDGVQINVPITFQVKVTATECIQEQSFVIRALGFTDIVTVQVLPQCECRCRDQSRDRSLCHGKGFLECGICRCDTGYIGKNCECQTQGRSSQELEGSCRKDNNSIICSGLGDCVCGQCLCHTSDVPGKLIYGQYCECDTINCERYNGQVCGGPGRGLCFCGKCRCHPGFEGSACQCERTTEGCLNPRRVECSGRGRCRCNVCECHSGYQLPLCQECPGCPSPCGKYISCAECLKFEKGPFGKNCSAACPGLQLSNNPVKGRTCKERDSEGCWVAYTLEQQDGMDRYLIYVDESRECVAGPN

| SMILES | IC50 (sLFA-1/ICAM-1; [2]) [nM] | IC50 [1] [nM] | IC50 (sLFA-1/ICAM-1) [nM] |
| --- | --- | --- | --- |
| CC(=O)NC[C@H](NC(=O)c1c(C)nc(NCCCc2cccc3[nH]ncc23)nc1C)C(=O)O [Example 4, (S)-3-acetylamino-2-({2-[3-(1H-indazol-4-yl)-propylamino]-4,6-dimethyl-pyrimidine-5-carbonyl}-amino)-propionic acid] | 120 | 10000 |  |
| Cc1nc(NCCCc2cccc(O)c2)nc(C)c1C(=O)N[C@@H](CNC(=O)Nc1ccccc1)C(=O)O [Example 107, (S)-2-({2-[3-(3-hydroxy-phenyl)-propylamino]-4,6-dimethyl-pyrimidine-5-carbonyl}-amino)-3-(3-phenyl-ureido)-propionic acid] |  |  | 166 |
| Cc1ccc(O)cc1CCCNc1nc(C)c(C(=O)N[C@@H](CNC(=O)c2cccs2)C(=O)O)c(C)n1 [Example 72, (S)-2-({2-[3-(2-Methyl-5-hydroxy-phenyl)-propylamino]-4,6-dimethyl-pyrimidine-5-carbonyl}-amino)-3-[(thiophene-2-carbonyl)-amino]-propionic acid] | 159 |  |  |
| Cc1ccc(CCCNc2nc(C)c(C(=O)N[C@@H](CNC(=O)c3cccs3)C(=O)O)c(C)n2)cc1O [Example 67, (S)-2-({2-[3-(3-Hydroxy-4-methyl-phenyl)-propylamino]-4,6-dimethyl-pyrimidine-5-carbonyl}-amino)-3-[(thiophene-2-carbonyl)-amino]-propionic acid] | 329 |  |  |
| Cc1nc(NCCCc2cccc(O)c2)nc(C)c1C(=O)N[C@@H](CNC(=O)CC1CCCCC1)C(=O)O [Example 44, (S)-2-({2-[3-(3-hydroxy-phenyl)-propylamino]-4,6-dimethyl-pyrimidine-5-carbonyl}-amino)-3-[1-cyclohexyl-acetylamino]-propionic acid] | 115 |  |  |
| Cc1nc(NCCCc2cccc(O)c2)nc(C)c1C(=O)N[C@@H](CNC(=O)c1csc(-c2ccncc2)n1)C(=O)O [Example 47, (S)-2-({2-[3-(3-hydroxy-phenyl)-propylamino]-4,6-dimethyl-pyrimidine-5-carbonyl}-amino)-3-[(2-pyridin-4-yl-thiazole-4-carbonyl)-amino]-propionic acid] | 70 |  |  |
| Cc1nc(NCCCc2cc(O)ccc2Cl)nc(C)c1C(=O)N[C@@H](CNC(=O)c1cccs1)C(=O)O [Example 68, (S)-2-({2-[3-(2-Chloro-5-hydroxy-phenyl)-propylamino]-4,6-dimethyl-pyrimidine-5-carbonyl}-amino)-3-[(thiophene-2-carbonyl)-amino]-propionic acid] | 291 |  |  |

Continued, in another order:

| IC50 (sLFA-1/ICAM-1; [2]) [nM] | SMILES | IC50 [1] [nM] | IC50 (sLFA-1/ICAM-1) [nM] |
| --- | --- | --- | --- |
| 4 | Cc1ccc(C(=O)NC[C@H](NC(=O)c2c(C)nc(NCCCc3cccc(O)c3)nc2C)C(=O)O)s1 [Example 87, (S)-2-({2-[3-(3-hydroxy-phenyl)-propylamino]-4,6-dimethyl-pyrimidine-5-carbonyl}-amino)-3-[(5-methyl-thiophene-2-carbonyl)-amino]-propionic acid] | 1430 |  |
| 9 | Cc1nc(NCCCc2cccc(O)c2)ncc1C(=O)N[C@@H](CNC(=O)c1cccs1)C(=O)O [Example 76, (S)-2-({2-[3-(3-Hydroxy-phenyl)-propylamino]-4-methyl-pyrimidine-5-carbonyl}-amino)-3-[(thiophene-2-carbonyl)-amino]-propionic acid] | 1760 |  |
| 29 | Cc1nc(NCCCc2cccc(O)c2)nc(C)c1C(=O)N[C@@H](CNC(=O)c1cnccn1)C(=O)O [Example 93, (S)-2-({2-[3-(3-hydroxy-phenyl)-propylamino]-4,6-dimethyl-pyrimidine-5-carbonyl}-amino)-3-[(pyrazine-2-carbonyl)-amino]-propionic acid] | 2300 |  |
| 66 | Cc1nc(NCCCc2cccc(O)c2)nc(C)c1C(=O)N[C@@H](CNC(=O)c1sccc1Cl)C(=O)O [Example 103, (S)-3-[(3-Chloro-thiophene-2-carbonyl)-amino]-2-({2-[3-(3-hydroxy-phenyl)-propylamino]-4,6-dimethyl-pyrimidine-5-carbonyl}-amino)-propionic acid] |  |  |
